{
  "source": "the NIST ThermoML archive (doi:10.1021/je800828y)",
  "details": "351.44 K; Liquid; Ebulliometric method (Recirculating still)",
  "note": "± gives the expanded uncertainty stated by the source.",
  "data": [
    {"smiles": "CCO", "note": "[ethanol]", "values": [
      {"measurement": "vapor or sublimation pressure", "result": "101.3 ± 0.1", "unit": "kPa"}
    ]}
  ]
}
